# Laboratory results taken from ChEMBL document CHEMBL4184321, “Fragment-Based Drug Discovery of Potent Protein Kinase C Iota Inhibitors” (J Med Chem, 2018).
# Assays:
# [1] = biological target: T1, Protein kinase C iota type (Homo sapiens, UniProt P41743); test: Inhibition of full-length N-terminal GST-fused human PKC-iota expressed in baculovirus expression system using (5FAM) RFARKGSLRQKNV as substrate after 60 mins by caliper assay
# T1 sequence (P41743 whole entry): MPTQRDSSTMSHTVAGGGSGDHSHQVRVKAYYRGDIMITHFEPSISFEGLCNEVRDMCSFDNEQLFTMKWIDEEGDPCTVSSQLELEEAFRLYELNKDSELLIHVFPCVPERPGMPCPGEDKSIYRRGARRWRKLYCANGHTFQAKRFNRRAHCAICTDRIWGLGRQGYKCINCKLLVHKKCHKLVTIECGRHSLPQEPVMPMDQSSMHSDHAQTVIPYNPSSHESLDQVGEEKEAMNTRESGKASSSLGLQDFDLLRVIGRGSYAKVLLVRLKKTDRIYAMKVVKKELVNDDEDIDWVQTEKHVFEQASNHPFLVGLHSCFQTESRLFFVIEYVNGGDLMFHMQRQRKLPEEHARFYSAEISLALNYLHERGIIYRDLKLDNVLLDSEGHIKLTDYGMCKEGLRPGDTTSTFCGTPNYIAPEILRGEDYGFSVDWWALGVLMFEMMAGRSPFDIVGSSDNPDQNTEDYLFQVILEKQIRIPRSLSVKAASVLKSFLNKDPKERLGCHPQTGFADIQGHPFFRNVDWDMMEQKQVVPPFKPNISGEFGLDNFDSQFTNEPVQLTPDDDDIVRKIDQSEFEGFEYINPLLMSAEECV
# [2] = biological target: Protein kinase C alpha type (Homo sapiens, UniProt P17252); test: Inhibition of full-length N-terminal GST-fused human PKC-alpha expressed in baculovirus expression system using (5FAM) RFARKGSLRQKNV as substrate after 60 mins by caliper assay
# Huh-7 = test: Antiproliferative activity against human HuH7 cells after 72 hrs by CellTiter-Glo assay; assay type: functional; details: Huh-7, 72 h
# [3] = biological target: T2, Protein kinase C epsilon type (Homo sapiens, UniProt Q02156); test: Inhibition of full-length N-terminal GST-fused human PKC-epsilon expressed in baculovirus expression system using (5FAM) RFARKGSLRQKNV as substrate after 60 mins by caliper assay
# T2 sequence (Q02156 whole entry): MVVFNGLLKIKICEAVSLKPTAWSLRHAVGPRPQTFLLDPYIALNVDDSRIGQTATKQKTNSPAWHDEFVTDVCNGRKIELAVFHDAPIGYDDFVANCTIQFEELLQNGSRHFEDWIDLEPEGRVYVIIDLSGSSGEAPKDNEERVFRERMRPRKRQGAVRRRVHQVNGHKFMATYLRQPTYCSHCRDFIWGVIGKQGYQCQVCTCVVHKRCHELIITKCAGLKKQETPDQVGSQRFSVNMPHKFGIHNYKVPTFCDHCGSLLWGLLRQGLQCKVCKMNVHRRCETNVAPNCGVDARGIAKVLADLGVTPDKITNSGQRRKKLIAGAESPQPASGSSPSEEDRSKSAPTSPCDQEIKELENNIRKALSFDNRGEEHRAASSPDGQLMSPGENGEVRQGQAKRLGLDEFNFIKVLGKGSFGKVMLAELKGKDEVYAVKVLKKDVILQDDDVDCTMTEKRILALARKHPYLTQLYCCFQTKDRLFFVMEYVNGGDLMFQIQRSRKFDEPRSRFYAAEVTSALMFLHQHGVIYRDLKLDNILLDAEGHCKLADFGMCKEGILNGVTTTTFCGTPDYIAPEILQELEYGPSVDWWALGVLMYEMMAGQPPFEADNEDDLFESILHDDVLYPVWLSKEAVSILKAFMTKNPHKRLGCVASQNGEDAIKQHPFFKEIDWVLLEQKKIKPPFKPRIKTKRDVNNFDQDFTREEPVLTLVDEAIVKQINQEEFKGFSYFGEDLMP
# HCCLM3 = test: Antiproliferative activity against human HCCLM3 cells after 72 hrs by CellTiter-Glo assay; assay type: functional; details: HCCLM3, 72 h
# [4] = Solubility of the compound at pH 4; assay type: physicochemical; details: buffer
# [5] = Permeability across apical to basolateral side in human Caco2 cells; assay type: ADME, cell-based; details: Caco-2, read-out: permeability
# Cytochrome P450 2D6 = Cytochrome P450 2D6 (Homo sapiens, UniProt P10635); test: Inhibition of CYP2D6 (unknown origin); assay type: ADME
# [6] = Clearance in mouse liver microsomes; assay type: ADME, microsome; details: read-out: CLH
# [7] = Clearance in human liver microsomes; assay type: ADME, microsome; details: read-out: CLH
# [8] = Half life in human liver microsomes; assay type: ADME, microsome
# [9] = Solubility of the compound at pH 7.4; assay type: physicochemical; details: buffer
# [10] = Half life in mouse liver microsomes; assay type: ADME, microsome
# Chain of Cytochrome P450 2D6 (P10635 whole entry): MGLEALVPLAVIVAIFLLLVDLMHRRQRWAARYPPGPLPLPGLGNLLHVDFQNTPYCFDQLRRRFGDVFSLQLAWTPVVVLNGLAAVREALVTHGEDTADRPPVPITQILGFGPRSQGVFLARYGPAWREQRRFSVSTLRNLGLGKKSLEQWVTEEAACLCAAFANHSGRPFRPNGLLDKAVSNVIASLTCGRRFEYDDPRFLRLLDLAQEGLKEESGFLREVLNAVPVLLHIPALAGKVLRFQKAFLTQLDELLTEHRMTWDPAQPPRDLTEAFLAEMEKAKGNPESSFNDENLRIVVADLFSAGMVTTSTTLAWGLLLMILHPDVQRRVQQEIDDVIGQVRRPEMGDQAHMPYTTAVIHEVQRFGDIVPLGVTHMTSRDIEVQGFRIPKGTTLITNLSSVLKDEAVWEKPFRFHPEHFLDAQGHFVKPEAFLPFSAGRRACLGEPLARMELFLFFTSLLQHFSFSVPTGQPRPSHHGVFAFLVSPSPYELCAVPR
IC50 [1],IC50 [2],Structure (SMILES),other results
,2.5 µM,COc1ccc2c(c1)C(=O)N(c1cnn3ccc(-c4ccnc5[nH]ccc45)cc13)C2,
,0.34 µM,COc1cc2c(cc1-c1cnc3ccc(-c4ccnc5[nH]ccc45)cn13)CNC2,
,0.14 µM,COc1cc2c(cc1-c1cnn3ccc(-c4ccnc5[nH]ccc45)cc13)CN(C)C2,
,0.25 µM,COc1cc2c(cc1-n1cnc3cnc(-c4ccnc5[nH]ccc45)cc31)CNC2,
,0.35 µM,COc1cc2c(cc1-c1cnn3ccc(-c4ccnc5[nH]ccc45)nc13)CNC2,
0.0027 µM,0.045 µM,COc1cc2c(cc1-c1cnn3ccc(-c4ccnc5[nH]ccc45)cc13)CNC(CF)C2 (centres undefined),GI50 (Huh-7): 3.3 µM; IC50 [3]: 0.045 µM; GI50 (HCCLM3): 6.6 µM
0.048 µM,0.28 µM,COc1cc2c(cc1-n1cnc3ccc(-c4ccnc5[nH]ccc45)cc31)CNC2,GI50 (Huh-7): 9 µM; solubility [4]: 790 µg/mL; Papp A→B [5]: 0.57 ×10⁻⁶ cm/s; IC50 [3]: 0.56 µM; IC50 (Cytochrome P450 2D6): 24 µM; microsomal CLint [6]: 21.5 µL/min/mg; microsomal CLint [7]: 10 µL/min/mg; half-life [8]: 67 min; solubility [9]: 1.3 µg/mL; half-life [10]: 32 min
,0.38 µM,COc1cc2c(cc1-c1cnn3ccc(-c4ccnc5[nH]ccc45)cc13)CN(C(C)=O)C2,

# The remaining lines, values behind:
Structure (SMILES),IC50 [1],IC50 [2],other results
Nc1ccc2[nH]cnc2c1,728 µM,,
O=C1CCCc2cc(O)ccc21,1680 µM,,
COc1cc2c(cc1-c1cnn3ccc(-c4ccnc5[nH]ccc45)cc13)CNCC2,,0.071 µM,
Clc1ccnc2[nH]ccc12,1300 µM,,
Brc1ccnc2[nH]ccc12,615 µM,,
COc1cc2c(cc1-c1cnn3ccc(-c4ccnc5[nH]ccc45)cc13)CNC(C)C2 (centres undefined),,0.064 µM,
COc1cc2c(cc1-n1cnc3ccc(-c4ccnc5[nH]ccc45)nc31)CNC2,,0.43 µM,
COc1cc2c(cc1-c1cnc3ccc(-c4ccnc5[nH]ccc45)nn13)CNC2,,1.4 µM,
Cn1ccc2cc(N)ccc21,1310 µM,,
COc1cc2c(cc1-c1cnn3ccc(-c4ccnc5[nH]ccc45)cc13)CNC2,,0.11 µM,
O=c1[nH]ncc2ccccc12 [PHTHALAZINONE],589 µM,,
